Data on 22 compounds can be found in US20100286145A1, “ISOPHTHALAMIDE DERIVATIVES INHIBITING BETA-SECRETASE ACTIVITY” (CoMentis, Inc., priority 2007, published 2010).

In this experiment the target is memapsin 2 (Homo sapiens, UniProt P56817). The experiment can be described thus: Inhibition of memapsin 2 beta-secretase activity (fluorogenic substrate FS-2). It is filed as biochemical. The settings on record: memapsin 2, pH 4, 37° C., read-out: M2Ki. The protocol: Potency of compounds were determined by measurement of their inhibition of memapsin 2 activity toward a fluorescent substrate. Kinetic inhibition experiments were performed using the procedure as described in Ermolieff, et al. (Biochemistry 39:12450-12456 (2000), the teachings of which are incorporated hereby in their entirety). Briefly, assays were performed at pH 4, 37° C., by pre-incubation of memapsin 2 enzyme with compound for 20 minutes. Activity measurements were initiated by addition of a fluorogenic substrate FS-2 (Bachem Americas, Torrance, Calif.) MCA-SEVNLDAEFR-DNP (SEQ ID NO.: 2). The substrate was derived from 10 amino acids of the human amyloid precursor protein (APP), with the Swedish variant amino acids at the beta-secretase cleavage site. The terminal amino acid was modified from arginine to lysine to facilitate derivatization with a functional group for detection by autofluorescence. The amino acid sequence of the “core” peptide of the substrate is SEVNLDAEFK (SEQ ID NO.: 3). The amino terminus was derivatized with (7-methoxycoumarin-4-yl)acetyl (MCA), and the epsilon amine of the lysine side chain of the terminal residue (K in sequence SEVNLDAEFK (SEQ ID NO.: 3)) was derivatized with 2,4-dinitorphenyl (DNP).
Fluorescent signal increase over time was measured as a rate of hydrolysis of the peptide substrate. Inhibition of hydrolytic rate was expressed relative to uninhibited controls and fit to a model for tight-binding inhibitors (J. Bieth, in “Proteinase Inhibitors,” Bayer Symposium V, 463-469, 1974, which is herein incorporated by reference for all purposes in its entirety).

Each structure is given as a SMILES string. Read-outs that look alike come from different tables or passages of the source. Some results are limits rather than exact numbers.

memapsin 2, sequence (P56817 46-501): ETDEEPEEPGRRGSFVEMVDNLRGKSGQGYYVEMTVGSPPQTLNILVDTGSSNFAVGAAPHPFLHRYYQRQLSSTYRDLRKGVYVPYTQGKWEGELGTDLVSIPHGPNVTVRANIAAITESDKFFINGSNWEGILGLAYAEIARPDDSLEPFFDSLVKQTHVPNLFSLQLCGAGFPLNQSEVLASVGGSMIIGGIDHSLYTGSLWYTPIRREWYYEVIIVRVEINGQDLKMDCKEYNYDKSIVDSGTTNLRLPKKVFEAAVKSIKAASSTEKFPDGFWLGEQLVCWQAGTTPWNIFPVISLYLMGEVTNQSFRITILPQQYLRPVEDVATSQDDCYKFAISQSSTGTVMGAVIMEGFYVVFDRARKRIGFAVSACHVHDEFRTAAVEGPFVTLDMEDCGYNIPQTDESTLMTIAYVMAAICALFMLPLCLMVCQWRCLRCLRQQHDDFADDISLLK

Regarding `CCCN(Cc1nc(C)cs1)C(=O)c1cc(OC)cc(C(=O)N[C@@H](Cc2ccccc2)[C@H](O)CNCc2cccc(OC)c2)c1` [Compound 20, N1-((2S,3R)-3-hydroxy-4-(3-methoxybenzylamino)-1-phenylbutan-2-yl)-5-methoxy-N3-((4-methylthiazol-2-yl)methyl)-N3-propylisophthalamide], under “20 minutes pre-incubation”, the Ki is under 300 nM.

For `COc1cccc(CNC[C@@H](O)[C@H](Cc2ccccc2)NC(=O)c2cccc(C(=O)N(C)Cc3nc(C)cs3)c2O)c1` [Compound 296, 2-hydroxy-N1-((2S,3R)-3-hydroxy-4-(3-methoxybenzylamino)-1-phenylbutan-2-yl)-N3-methyl-N3-((4-methylthiazol-2-yl)methyl)isophthalamide], for the setting “fluorogenic substrate FS-2”, the Ki was over 501 nM.

Consider `CC(C)c1cncc(CNC[C@@H](O)[C@H](Cc2ccccc2)NC(=O)c2cccc(C(=O)N(C)Cc3nccs3)c2)c1` [Compound 318, N1-((2S,3R)-3-hydroxy-4-((5-isopropylpyridin-3-yl)methylamino)-1-phenylbutan-2-yl)-N3-methyl-N3-(thiazol-2-ylmethyl)isophthalamide], for which the Ki (fluorogenic substrate FS-2) is under 300 nM.

Consider `Cc1csc(CN(C)C(=O)c2cccc(C(=O)N[C@@H](Cc3ccccc3)[C@H](O)CNCc3cc(C(F)(F)F)ccn3)c2)n1` [Compound 302, N1-((2S,3R)-3-hydroxy-1-phenyl-4-((4-(trifluoromethyl)pyridin-2-yl)methylamino)butan-2-yl)-N3-methyl-N3-((4-methylthiazol-2-yl)methyl)isophthalamide], for which the Ki (fluorogenic substrate FS-2) is under 300 nM.

With `CSCc1ccc(CNC[C@@H](O)[C@H](Cc2ccccc2)NC(=O)c2cccc(C(=O)N(C)Cc3nc(C)cs3)c2)nc1C` [Compound 87, N1-((2S,3R)-3-hydroxy-4-((6-methyl-5-(methylthiomethyl)pyridin-2-yl)methylamino)-1-phenylbutan-2-yl)-N3-methyl-N3-((4-methylthiazol-2-yl)methyl)isophthalamide], where the note is “20 minutes pre-incubation”, the Ki was over 501 nM.

Regarding `C[C@@H](NC(=O)c1cc(C(=O)N[C@@H](Cc2ccccc2)[C@H](O)CNCc2cc(C(C)(C)C)ccc2O[Si](C)(C)C(C)(C)C)cc(N(C)S(C)(=O)=O)c1)c1ccccc1` [Compound 109, N1-((2S,3R)-4-(5-tert-butyl-2-(tert-butyldimethylsilyloxy)benzylamino)-3-hydroxy-1-phenylbutan-2-yl)-5-(N-methylmethylsulfonamido)-N3-((R)-1-phenylethyl)isophthalamide], the Ki (20 minutes pre-incubation) is under 300 nM.

With `C=C(C)c1cncc(CNC[C@@H](O)[C@H](Cc2ccccc2)NC(=O)c2cccc(C(=O)N(C)Cc3nc(CO)cs3)c2)c1` [Compound 319, N1-((2S,3R)-3-hydroxy-1-phenyl-4-((5-(prop-1-en-2-yl)pyridin-3-yl)methylamino)butan-2-yl)-N3-((4-(hydroxymethyl)thiazol-2-yl)methyl)-N3-methylisophthalamide], under “fluorogenic substrate FS-2”, the Ki was under 300 nM.

In the case of `COc1cccc(CNC[C@@H](O)[C@H](Cc2ccccc2)NC(=O)c2cccc(C(=O)N(C)Cc3nc(C)c(C)s3)c2)c1` [Compound 24, N1-((4,5-dimethylthiazol-2-yl)methyl)-N3-((2S,3R)-3-hydroxy-4-(3-methoxybenzylamino)-1-phenylbutan-2-yl)-N1-methylisophthalamide], where the note is “20 minutes pre-incubation”, the Ki was over 501 nM.

Consider `Cc1csc(CN(C)C(=O)c2cccc(C(=O)N[C@@H](Cc3ccccc3)[C@H](O)CNCc3cccc4ccccc34)c2)n1` [Compound 35, N1-((2S,3R)-3-hydroxy-4-(naphthalen-1-ylmethylamino)-1-phenylbutan-2-yl)-N3-methyl-N3-((4-methylthiazol-2-yl)methyl)isophthalamide], for which the Ki (20 minutes pre-incubation) fell in the range of 301 to 500 nM.

For the compound `COC(OC)C(C)c1cncc(CNC[C@@H](O)[C@H](Cc2ccccc2)NC(=O)c2cccc(C(=O)N(C)Cc3nc(C)cs3)c2)c1` (stereo partly drawn) [Compound 284, N1-((2S,3R)-4-((5-(1,1-dimethoxypropan-2-yl)pyridin-3-yl)methylamino)-3-hydroxy-1-phenylbutan-2-yl)-N3-methyl-N3-((4-methylthiazol-2-yl)methyl)isophthalamide], the Ki (fluorogenic substrate FS-2) was under 300 nM.

In the case of `Cc1csc(CN(C)C(=O)c2cccc(C(=O)N[C@@H](Cc3ccccc3)[C@H](O)CNCc3ccc(C)c(C)c3)c2)n1` [Compound 13, N1-((2S,3R)-4-(3,4-dimethylbenzylamino)-3-hydroxy-1-phenylbutan-2-yl)-N3-methyl-N3-((4-methylthiazol-2-yl)methyl)isophthalamide], the Ki (20 minutes pre-incubation) is under 300 nM.

On to `Cc1c(CNC[C@@H](O)[C@H](Cc2ccccc2)NC(=O)c2cc(C(=O)N[C@H](C)c3ccccc3)cc(N(C)S(C)(=O)=O)c2)cnn1C(C)(C)C` [Compound 120, N1-((2S,3R)-4-((1-tert-butyl-5-methyl-1H-pyrazol-4-yl)methylamino)-3-hydroxy-1-phenylbutan-2-yl)-5-(N-methylmethylsulfonamido)-N3-((R)-1-phenylethyl)isophthalamide], for which, where the note is “20 minutes pre-incubation”, the Ki fell in the range of 301 to 500 nM.

On to `COc1cccc([C@H](C)NC[C@@H](O)[C@H](Cc2ccccc2)NC(=O)c2cc(C(=O)N(C)Cc3nc(C)cs3)cc(C(F)F)c2)c1` [Compound 301, 5-(difluoromethyl)-N1-((2S,3R)-3-hydroxy-4-((S)-1-(3-methoxyphenyl)ethylamino)-1-phenylbutan-2-yl)-N3-methyl-N3-((4-methylthiazol-2-yl)methyl)isophthalamide], for which the Ki (fluorogenic substrate FS-2) is under 300 nM.

Regarding `COC(=O)c1ccc(CNC[C@@H](O)[C@H](Cc2ccccc2)NC(=O)c2cccc(C(=O)N(C)Cc3nc(C)cs3)c2)nc1C` [Compound 36, methyl 6-(((2R,3S)-2-hydroxy-3-(3-(methyl((4-methylthiazol-2-yl)methyl)carbamoyl)benzamido)-4-phenylbutylamino)methyl)-2-methylnicotinate], where the note is “20 minutes pre-incubation”, the Ki was over 501 nM.

Consider `Cc1csc(CN(C)C(=O)c2cccc(C(=O)N[C@@H](Cc3ccccc3)[C@H](O)CN(Cc3cnn(C)c3)Cc3cnn(C)c3)c2)n1` [Compound 156, N1-((2S,3R)-4-(bis((1-methyl-1H-pyrazol-4-yl)methyl)amino)-3-hydroxy-1-phenylbutan-2-yl)-N3-methyl-N3-((4-methylthiazol-2-yl)methyl)isophthalamide], for which the Ki (20 minutes pre-incubation) was over 501 nM.

In the case of `COc1cccc(CNC[C@@H](O)[C@H](Cc2ccccc2)NC(=O)c2cc(C(=O)NCc3cccc(C)n3)cc(N(C)S(C)(=O)=O)c2)c1` [Compound 127, N1-((2S,3R)-3-hydroxy-4-(3-methoxybenzylamino)-1-phenylbutan-2-yl)-5-(N-methylmethylsulfonamido)-N3-((6-methylpyridin-2-yl)methyl)isophthalamide], the Ki (20 minutes pre-incubation) is over 501 nM.

Regarding `CCN(CC)c1cccc(CNC[C@@H](O)[C@H](Cc2ccccc2)NC(=O)c2cccc(C(=O)N(C)Cc3nc(C)cs3)c2)c1` [Compound 152, N1-((2S,3R)-4-(3-(diethylamino)benzylamino)-3-hydroxy-1-phenylbutan-2-yl)-N3-methyl-N3-((4-methylthiazol-2-yl)methyl)isophthalamide], for the setting “20 minutes pre-incubation”, the Ki was under 300 nM.

In the case of `COc1cccc(CNC[C@@H](O)[C@H](Cc2cc(F)cc(F)c2)NC(=O)c2cc(C(C)=O)cc(C(=O)N[C@H](C)c3ccccc3)c2)c1` [Compound 306, 5-acetyl-N1-((2S,3R)-1-(3,5-difluorophenyl)-3-hydroxy-4-(3-methoxybenzylamino)butan-2-yl)-N3-((R)-1-phenylethyl)isophthalamide], for the setting “fluorogenic substrate FS-2”, the Ki was under 300 nM.

Consider `CCn1cc(CNC[C@@H](O)[C@H](Cc2ccccc2)NC(=O)c2cccc(C(=O)N(C)Cc3nc(C)cs3)c2)cn1` [Compound 320, N1-((2S,3R)-4-((1-ethyl-1H-pyrazol-4-yl)methylamino)-3-hydroxy-1-phenylbutan-2-yl)-N3-methyl-N3-((4-methylthiazol-2-yl)methyl)isophthalamide], for which the Ki (fluorogenic substrate FS-2) was under 300 nM.

Take `Cc1csc(CN(C)C(=O)c2cc(C(=O)N[C@@H](Cc3ccccc3)[C@H](O)CNCc3cccc(C(F)(F)F)c3)cc(-c3cnco3)c2)n1` [Compound 219, N1-((2S,3R)-3-hydroxy-1-phenyl-4-(3-(trifluoromethyl)benzylamino)butan-2-yl)-N3-methyl-N3-((4-methylthiazol-2-yl)methyl)-5-(oxazol-5-yl)isophthalamide]: the Ki (fluorogenic substrate FS-2) is under 300 nM.

In the case of `COc1cccc(CNC[C@@H](O)[C@H](Cc2ccccc2)NC(=O)c2cc(C(=O)N(C)Cc3nc(C)cs3)cc(C3CCC(O)C3)c2)c1` (stereo partly drawn) [Compound 307, N1-((2S,3R)-3-hydroxy-4-(3-methoxybenzylamino)-1-phenylbutan-2-yl)-5-(3-hydroxycyclopentyl)-N3-methyl-N3-((4-methylthiazol-2-yl)methyl)isophthalamide], the Ki (fluorogenic substrate FS-2) is over 501 nM.

As for `COc1cccc(CNC[C@@H](O)[C@H](Cc2ccccc2)NC(=O)c2cc(C(=O)N(C)Cc3nc(C)cs3)cc(-c3ccncc3)c2)c1` [Compound 203, N1-((2S,3R)-3-hydroxy-4-(3-methoxybenzylamino)-1-phenylbutan-2-yl)-N3-methyl-N3-((4-methylthiazol-2-yl)methyl)-5-(pyridin-4-yl)isophthalamide], for the setting “20 minutes pre-incubation”, the Ki was under 300 nM.
